The values below come from US9681669B2 (priority 2012, dated 2017).

SMILES strings stand for the structures. Where two headings read alike, the source gives them in different places.

The test system of one data set is P. infestans. Format: in vivo, Phytophthora infestans. As to conditions: BABA 0.3 g/l; Desiree, Bintje, Ovatio; 6 dpi.
Data set [1] deals with Pathogenesis-related protein (PR-1). Format: in vivo, Solanum tuberosum. As to conditions: BABA 0.3 g/l; all three genotypes.

`CC(N)CC(=O)O` (stereo not drawn) [BABA, β-aminobutyric acid]: in the data set with P. infestans, the “effect on lesion size, SBE compared with BABA-treated plants” value is recorded as “not significantly different”. Further, in data set [1], the “PR-1 protein induction compared with SBE” value is “stronger”. Besides, the “necrotic dots or lesions on treated plants” value (Bintje, BABA treatment (0.3 g/l)) was “no such lesions were observed” and the “necrotic dots or lesions on treated plants” value (Desiree, two days after BABA treatment (0.3 g/l)) is “Small necrotic dots or lesions”.
